The values that follow come from patent US11666517B2, “Antimicrobial composition” (Firmenich SA, priority 2016, dated 2023).

In experiment [1] the test system is E. coli DSMZ 1103. In words: Fractional Inhibitory Concentration Index (FIC) / MIC, 96-well broth dilution of ingredient combinations. Format: cell-based, Escherichia coli. Conditions: for MIC: Escherichia coli, DSMZ1103, 24 h, read-out: Concentration of ingredient alone (Minimal Inhibitory Concentration, MIC alone); for FIC: ingredient alone at its MIC. The protocol: (§1) The method below allows evaluating antimicrobial activity of different raw materials in combination. The Fractional Inhibitory Concentration Index (FIC Index) is a measure of activity (Garcia L. S., Clinical Microbiology Procedures Handbook, pg. 140-162, 3rd Edition (2010), ASM Press, Washington D.C.) and is calculated according to the formula below:
(§2) [formula] where (MICA alone) and (MICB alone) are the Minimal Inhibitory Concentrations (MIC) of individual ingredients A and B when used in isolation, respectively; whereas (MICA combination) and (MICB combination) are the Minimal Inhibitory Concentrations of materials A and B when tested in combination. Ingredient A corresponds to nona-2,6-dien-1-ol and ingredient B stands for 3-neopentylpyridine, 2-methylhexan-3-one oxime, terpineol or 2-isopropyl-5-methylphenol.
(§3) The Minimal Inhibitory Concentration of a material is defined as the lowest concentration of an agent which can inhibit visible bacterial growth (CLSI M08-A8 Methods for dilution Antimicrobial Susceptibility Test for Bacteria That Grow Aerobically; Approved Standard-Eighth Edition).
(§4) Bacterial suspensions of E. coli DSMZ 1103 and S. aureus DSMZ 1104 were prepared as follows: a frozen stock aliquot was streaked on a Tryptic Soy Agar plate, which was then incubated at 37° C. for 24 hours. A single bacterial colony was picked and inoculated into 50 ml of Mueller Hinton Broth contained in a 100 ml-flask. Incubation was performed overnight at 37° C., under agitation (160 rpm). The following day, the overnight culture was diluted into 50 ml of fresh Mueller Hinton Broth at 1:50 and 1:100 for S. aureus and E. coli, respectively. Growth at 37° C. was continued as described above until the absorbance measured at 600 nm reached 0.7-0.9 and 0.3-0.45 for S. aureus and E. coli, respectively. At this point, cells were harvested by centrifugation (10 min—5000×g—4° C.) and suspended in fresh Mueller Hinton Broth at a concentration of 1×10^8 CFU/ml.
(§5) Solutions of raw materials under evaluation (ingredients A and B) were prepared in ethanol and then serially diluted in the desired concentration into 96-well microtiter plates (10 μl per well). Columns 1, 10, 11 and 12 received only 10 μl ethanol without any testing material. The final concentration of ethanol was 5% w/v for all wells.
(§6) Then, 90 μl of cell suspension as prepared above were added to each well of the microtiter plate, with the exception of column 12 which received 90 μl of Mueller Hinton Broth. The final volume of each well was brought to 200 μl with Mueller Hinton Broth. Each plate was sealed and incubated at 37° C. for 24 hours, under agitation (160 rpm). After incubation, plate reading was performed visually by recording wells with visible bacterial growth. Each combination of materials was tested in triplicate. Turbidity due to potential precipitation of raw materials was taken into account by scoring plates containing identical raw material concentrations, without bacteria.
On the technique in general: Dilution methods test growth across graded concentrations, often in twofold steps.

The test system of another experiment is S. aureus DSMZ 1104. The experiment is described as above. The format is cell-based, Staphylococcus aureus. The following applies: for MIC: Staphylococcus aureus, DSMZ1104, 24 h, read-out: Concentration of ingredient alone (Minimal Inhibitory Concentration, MIC alone); for FIC: ingredient alone at its MIC. The protocol:
as §1, §2, §3, §4, §5, §6

In experiment [2] the test system is E. coli DSMZ 1103. In words: BCT test in 50% liquid soap base. Format: cell-based, Escherichia coli. Conditions: Table 21: single material 0.3% in 50% liquid soap base, contact time 45 sec. The protocol: Bacterial solutions of the two strains, E. coli DSMZ 1103 and S. aureus DSMZ 1104, were prepared for BCT test as follows. Stock cultures stored at −80° C. were sub-cultured onto Tryptic Soy Agar (TSA) agar plate media, and incubated at 37° C. for 24 h to obtain single colonies. Single colonies of the primary cultures were streaked onto TSA slant and incubate it at 37° C. incubator for 24 h. Bacterial lawns of the slant culture were collected in PBS buffer to make suspensions with the target level of 1-5×10^8 CFU/mL. The 1:100 dilution of each cell suspension in PBS buffer was used as the bacterial solutions for the BCT test.
Test samples of base with synergistic binary mixtures were prepared as follows. Raw materials of the synergistic binary mixtures (Table 17) were mixed with the liquid soap base PGK-10-003 (Table 18). Aliquots (2.5 g) of each mixture were weighed into 20 ml glass tube with a stirrer bar, and added with equal amount of MilliQ water to make 50% suspension as the test samples for the BCT test.
BCT tests were performed in the 20 ml sample tubes. Each sample tube with 5 g of 50% sample suspension was placed onto a magnetic stirrer, and an aliquot of bacterial solution (100 μl) was added to the sample and allowed for a contact of 45 sec during mixing. Then aliquots (0.5 ml) of the mixture were transferred into 5 ml PBS, and further serial dilutions were made in 4.5 ml PBS. Aliquots (0.5 ml) of PBS dilutions were plated onto duplicate plates of TSA plates using the pour plate method. TSA plates were incubated at 37° C. for 48 h. After incubation, colonies on TSA plates were enumerated and log reduction of each sample were calculated against the CFU counts of the control sample (MilliQ water).

For the next experiment, the system named is C. xerosis ATCC 373. In words: BCT test in 90% roll-on deodorant base. Conditions: Table 25: single material 0.216% in 90% roll-on deodorant base, contact time 120 sec. Format: cell-based, Corynebacterium xerosis. The protocol: Bacterial solution of C. xerosis ATCC 373 strain was prepared for BCT test as follows. Stock cultures stored at −80° C. were subcultured onto Tryptic Soy Agar media with 0.5% Tween 80 (TSA-TW80), and incubated at 37° C. for 48 h. The primary cultures were subcultured onto TSA-TW80 again to prepare the secondary cultures. Single colonies of secondary culture were inoculated into 30 ml of Brain Heart Infusion (BHI) broth with 0.5% Tween 80 (BHI-TW80), and incubated at 37° C. 180 rpm for 24 h. Aliquots (1 ml) of the 24 h culture were inoculated into 30 ml of fresh BHI-TW80 broth, and incubated at 37° C. 180 rpm for 48 h. Aliquots (2-3 ml) of the 48 h culture were inoculated into four 50 ml of fresh BHI-TW80 broth medium, and incubated at 37° C. 180 rpm for 4-6 hrs. When the OD reached the target value of 1.6, cells were harvested by centrifugation at 5000 rpm for 10 min, and then resuspended in the same fresh broth media to a target concentration of 10^9 to 10^10 cfu/mL. This suspension was used as the bacterial solution for the BCT test.
Test samples of base with synergistic binary mixtures were prepared as follows. Raw materials of the synergistic binary mixtures were weighed (Table 22), and mixed with 0.3 g PEG-40 Hydrogenated Castor Oil and 9.57 g deodorant roll on base (Table 23).
BCT tests were performed in 15 ml sample tubes. Aliquots (0.9 g) of each sample were weighed into the tube, and an aliquot of bacterial solution (100 μl) was added to the sample and allowed for a contact time of 120 sec with constant mixing. At the end of the contact time, aliquots (9 ml) of BHI broth were added to the tube. The suspensions were mixed well by vortexing, and further 1:10 serial dilutions were made in […] BHI. Aliquots (1 ml) of BHI dilutions were plated onto duplicate plates of TSA-TW80 using pour plate methods. TSA-TW80 plates were incubated at 37° C. for 2-3 days. After incubation, colonies on TSA-TW80 plates were enumerated and log reduction of each sample were calculated against the CFU counts of the control sample (BHI).

The mark [3] stands for this setting: ingredient used in isolation, other ingredient 0 ppm, 37° C., 24 hours.

Where two headings read alike, the source gives them in different places.

Turning to `CC(C)=CCCC(C)=CCO` (stereo in doubt) [(Z)-3,7-Dimethyl-2,6-octadien-1-ol], in the experiment with E. coli DSMZ 1103 [1] (setting [3]), the MIC amounted to 1200 µg/mL. Besides, in the experiment on E. coli DSMZ 1103 [1] (other ingredient 0 ppm), the FIC amounted to 1.000.
As to `O=Cc1ccc2c(c1)OCO2` [1,3-Benzodioxole-5-carbaldehyde], the MIC in the experiment with S. aureus DSMZ 1104 and in the experiment on E. coli DSMZ 1103 [1] was 1200 µg/mL in each case. Further, the FIC with S. aureus DSMZ 1104 (other ingredient 0 ppm) is given as 1.00; in the experiment with E. coli DSMZ 1103 [1] (other ingredient 0 ppm), 1.000.
For `Cc1ccc(C(C)C)c(O)c1` [2-isopropyl-5-methylphenol], the “Average log reduction ± SEM (n = 2)” value in the experiment on E. coli DSMZ 1103 [2] is 0.4 ± 0.0 log. In the experiment on E. coli DSMZ 1103 [1] (setting [3]), the MIC stood at 600 µg/mL. The FIC with E. coli DSMZ 1103 [1] (other ingredient 0 ppm) is reported as 1.000. Also, in the experiment with C. xerosis ATCC 373, the Log reduction was found to be 6.0 log.
With `CCCC(=NO)C(C)C` [2-methylhexan-3-one oxime], in the experiment with S. aureus DSMZ 1104 (setting [3]), the MIC worked out at 4800 µg/mL. In addition, in the experiment on S. aureus DSMZ 1104 (other ingredient 0 ppm), the FIC came out at 1.00.
For `CC(C)(C)Cc1cccnc1` [3-neopentylpyridine], the FIC in the experiment with S. aureus DSMZ 1104 (other ingredient 0 ppm) is given as 1.00; in the experiment with E. coli DSMZ 1103 [1] (other ingredient 0 ppm), 1.000. Further, the “Average log reduction ± SEM (n = 2)” value in the experiment on E. coli DSMZ 1103 [2] was determined as 0.3 ± 0.2 log. Moreover, the MIC with E. coli DSMZ 1103 [1] (setting [3]) is 600 µg/mL. Further, the Log reduction in the experiment on C. xerosis ATCC 373 came to 5.9 log.
With `COc1ccc(C=O)cc1` [4-Methoxybenzaldehyde], the FIC amounted to 1.00 in the experiment on S. aureus DSMZ 1104 (other ingredient 0 ppm) and 1.000 in the experiment on E. coli DSMZ 1103 [1] (other ingredient 0 ppm). In the experiment with E. coli DSMZ 1103 [1] (setting [3]), the MIC was determined as 1200 µg/mL.
`CC/C=C\CC/C=C/CO` [(2E,6Z)-nona-2,6-dien-1-ol]: the values for the FIC in the experiment on S. aureus DSMZ 1104 (other ingredient 0 ppm) and with E. coli DSMZ 1103 [1] (other ingredient 0 ppm) were 1.00 and 1.000, respectively. Moreover, the “Average log reduction ± SEM (n = 2)” value with E. coli DSMZ 1103 [2] is listed as 0.3 ± 0.2 log. Further, the Log reduction in the experiment with C. xerosis ATCC 373 turned out to be 5.7 log.
Turning to `CC(C)[C@H]1CC[C@@H](CO)CC1` [cis-4(Isopropyl)cyclohexanemethanol], in the experiment with E. coli DSMZ 1103 [1] (setting [3]), the MIC stood at 9600 µg/mL. In addition, the FIC in the experiment with E. coli DSMZ 1103 [1] (other ingredient 0 ppm) is on record as 1.000.
Consider `CC1=CCC(C(C)(C)O)CC1` (stereo not drawn) [α-terpineol], for which the MIC in the experiment on S. aureus DSMZ 1104 (setting [3]) is 1200 µg/mL.
